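Compound exposure: 48 hours, 5 concentrations, 96-well plates. Definition used: TGI = concentration required for complete inhibition of growth.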
How the values were obtained:
Assay in all cases: NCI tumour cell line growth inhibition, 48 h
RXF 393 renal = system: RXF 393 renal
786-0 renal = system: 786-0 renal
T-47D breast = system: T-47D breast
EKVX NSCLC = system: EKVX NSCLC
SK-MEL-2 melanoma = system: SK-MEL-2 melanoma
SNB-19 CNS = system: SNB-19 CNS
SF-539 CNS = system: SF-539 CNS
M14 melanoma = system: M14 melanoma
COLO 205 colon = system: COLO 205 colon
OVCAR-8 ovarian = system: OVCAR-8 ovarian
SK-MEL-5 melanoma = system: SK-MEL-5 melanoma
A549 NSCLC = system: A549 NSCLC
A498 renal = system: A498 renal
TK-10 renal = system: TK-10 renal
NCI-H522 lung = system: NCI-H522 lung
HCC-2998 colon = system: HCC-2998 colon
NCI/ADR-RES ovarian = system: NCI/ADR-RES ovarian
SF-268 CNS = system: SF-268 CNS
DU-145 prostate = system: DU-145 prostate
MCF7 breast = system: MCF7 breast
K-562 leukemia = system: K-562 leukemia
SR leukemia = system: SR leukemia
HCT-116 colon = system: HCT-116 colon
OVCAR-5 ovarian = system: OVCAR-5 ovarian
HL-60(TB) leukemia = system: HL-60(TB) leukemia
UO-31 renal = system: UO-31 renal
SN12C renal = system: SN12C renal
OVCAR-4 ovarian = system: OVCAR-4 ovarian
HCT-15 colon = system: HCT-15 colon
MDA-N = system: MDA-N
OVCAR-3 ovarian = system: OVCAR-3 ovarian
CCRF-CEM leukemia = system: CCRF-CEM leukemia
MDA-MB-231 breast = system: MDA-MB-231 breast
HOP-62 NSCLC = system: HOP-62 NSCLC
HOP-92 NSCLC = system: HOP-92 NSCLC
SK-MEL-28 melanoma = system: SK-MEL-28 melanoma
UACC-62 melanoma = system: UACC-62 melanoma
LOX IMVI melanoma = system: LOX IMVI melanoma
SW-620 colon = system: SW-620 colon
NCI-H23 lung = system: NCI-H23 lung
CAKI-1 renal = system: CAKI-1 renal
BT-549 breast = system: BT-549 breast
PC-3 prostate = system: PC-3 prostate
HS 578T breast = system: HS 578T breast
U251 CNS = system: U251 CNS
MOLT-4 leukemia = system: MOLT-4 leukemia
MDA-MB-435 = system: MDA-MB-435
HT29 colon = system: HT29 colon
SF-295 CNS = system: SF-295 CNS
IGROV1 ovarian = system: IGROV1 ovarian
NCI-H460 lung = system: NCI-H460 lung
UACC-257 melanoma = system: UACC-257 melanoma
ACHN renal = system: ACHN renal
KM12 colon = system: KM12 colon
SNB-75 CNS = system: SNB-75 CNS
SK-OV-3 ovarian = system: SK-OV-3 ovarian
NCI-H226 lung = system: NCI-H226 lung
RPMI-8226 leukemia = system: RPMI-8226 leukemia

## CC(C)(C)c1cc2c(O)c(c1)C(c1ccccc1)c1cc(C(C)(C)C)cc(c1O)Cc1cc(C(C)(C)C)cc(c1O)C(c1ccccc1)c1cc(C(C)(C)C)cc(c1O)C2 (configuration not stated)
RXF 393 renal
  TGI: > 100 µM
786-0 renal
  TGI: > 100 µM
T-47D breast
  TGI: > 100 µM
EKVX NSCLC
  TGI: > 100 µM
SK-MEL-2 melanoma
  TGI: > 100 µM
SNB-19 CNS
  TGI: > 100 µM
SF-539 CNS
  TGI: > 100 µM
M14 melanoma
  TGI: > 100 µM
COLO 205 colon
  TGI: > 100 µM
OVCAR-8 ovarian
  TGI: > 100 µM
SK-MEL-5 melanoma
  TGI: > 100 µM
A549 NSCLC
  TGI: > 100 µM
A498 renal
  TGI: > 100 µM
TK-10 renal
  TGI: > 100 µM
NCI-H522 lung
  TGI: > 100 µM
HCC-2998 colon
  TGI: > 100 µM
NCI/ADR-RES ovarian
  TGI: > 100 µM
SF-268 CNS
  TGI: > 100 µM
DU-145 prostate
  TGI: > 100 µM
MCF7 breast
  TGI: > 100 µM
K-562 leukemia
  TGI: > 100 µM
SR leukemia
  TGI: > 100 µM
HCT-116 colon
  TGI: > 100 µM
OVCAR-5 ovarian
  TGI: > 100 µM
HL-60(TB) leukemia
  TGI: > 100 µM
UO-31 renal
  TGI: > 100 µM
SN12C renal
  TGI: > 100 µM
OVCAR-4 ovarian
  TGI: > 100 µM
HCT-15 colon
  TGI: > 100 µM
MDA-N
  TGI: > 100 µM
OVCAR-3 ovarian
  TGI: > 100 µM
CCRF-CEM leukemia
  TGI: > 100 µM
MDA-MB-231 breast
  TGI: > 100 µM
HOP-62 NSCLC
  TGI: > 100 µM
HOP-92 NSCLC
  TGI: > 100 µM
SK-MEL-28 melanoma
  TGI: > 100 µM
UACC-62 melanoma
  TGI: > 100 µM
LOX IMVI melanoma
  TGI: > 100 µM
SW-620 colon
  TGI: > 100 µM
NCI-H23 lung
  TGI: > 100 µM
CAKI-1 renal
  TGI: > 100 µM
BT-549 breast
  TGI: > 100 µM
PC-3 prostate
  TGI: > 100 µM
HS 578T breast
  TGI: > 100 µM
U251 CNS
  TGI: > 100 µM
MOLT-4 leukemia
  TGI: > 100 µM
MDA-MB-435
  TGI: > 100 µM
HT29 colon
  TGI: > 100 µM
SF-295 CNS
  TGI: > 100 µM
IGROV1 ovarian
  TGI: > 100 µM
NCI-H460 lung
  TGI: > 100 µM
UACC-257 melanoma
  TGI: > 100 µM
ACHN renal
  TGI: > 100 µM
KM12 colon
  TGI: > 100 µM

## O=C(O)CCc1nc2c(n1Cc1ccccc1)C(=O)c1ccccc1C2=O
RXF 393 renal
  TGI: > 100 µM
786-0 renal
  TGI: > 100 µM
T-47D breast
  TGI: > 100 µM
EKVX NSCLC
  TGI: > 100 µM
SK-MEL-2 melanoma
  TGI: 78.1 µM
SNB-19 CNS
  TGI: > 100 µM
SF-539 CNS
  TGI: > 100 µM
M14 melanoma
  TGI: 50.7 µM
COLO 205 colon
  TGI: > 100 µM
OVCAR-8 ovarian
  TGI: > 100 µM
SK-MEL-5 melanoma
  TGI: 43.5 µM
A549 NSCLC
  TGI: > 100 µM
A498 renal
  TGI: > 100 µM
TK-10 renal
  TGI: > 100 µM
NCI-H522 lung
  TGI: 72.1 µM
HCC-2998 colon
  TGI: > 100 µM
NCI/ADR-RES ovarian
  TGI: > 100 µM
SF-268 CNS
  TGI: > 100 µM
DU-145 prostate
  TGI: > 100 µM
MCF7 breast
  TGI: > 100 µM
K-562 leukemia
  TGI: > 100 µM
SR leukemia
  TGI: > 100 µM
HCT-116 colon
  TGI: > 100 µM
OVCAR-5 ovarian
  TGI: > 100 µM
HL-60(TB) leukemia
  TGI: > 100 µM
UO-31 renal
  TGI: > 100 µM
SN12C renal
  TGI: > 100 µM
OVCAR-4 ovarian
  TGI: > 100 µM
SNB-75 CNS
  TGI: > 100 µM
HCT-15 colon
  TGI: > 100 µM
MDA-N
  TGI: 52.8 µM
OVCAR-3 ovarian
  TGI: 85.9 µM
CCRF-CEM leukemia
  TGI: > 100 µM
SK-OV-3 ovarian
  TGI: > 100 µM
MDA-MB-231 breast
  TGI: > 100 µM
HOP-62 NSCLC
  TGI: > 100 µM
HOP-92 NSCLC
  TGI: 66.4 µM
SK-MEL-28 melanoma
  TGI: > 100 µM
UACC-62 melanoma
  TGI: > 100 µM
LOX IMVI melanoma
  TGI: > 100 µM
SW-620 colon
  TGI: > 100 µM
NCI-H23 lung
  TGI: > 100 µM
CAKI-1 renal
  TGI: > 100 µM
NCI-H226 lung
  TGI: > 100 µM
BT-549 breast
  TGI: > 100 µM
PC-3 prostate
  TGI: > 100 µM
HS 578T breast
  TGI: > 100 µM
U251 CNS
  TGI: > 100 µM
MOLT-4 leukemia
  TGI: > 100 µM
MDA-MB-435
  TGI: 35.8 µM
HT29 colon
  TGI: > 100 µM
SF-295 CNS
  TGI: > 100 µM
IGROV1 ovarian
  TGI: > 100 µM
NCI-H460 lung
  TGI: > 100 µM
UACC-257 melanoma
  TGI: > 100 µM
RPMI-8226 leukemia
  TGI: > 100 µM
ACHN renal
  TGI: > 100 µM
KM12 colon
  TGI: > 100 µM

From PubChem BioAssay (NCI)
